Assay results: patent publication US12037336B2, “Compounds with activity as inhibitors of the epithelial sodium channel (ENaC)” (Enterprise Therapeutics Limited, priority 2018, dated 2024)
Where a name gives a salt, the structure may show the parent alone.

Biological target: T1, ENaC (Homo sapiens, UniProt P37088+P51168+P51170)
T1 construct: host or cells: primary human bronchial epithelial cells (HBECs), differentiated at an air-liquid interface
T1 sequence (P37088 1-669): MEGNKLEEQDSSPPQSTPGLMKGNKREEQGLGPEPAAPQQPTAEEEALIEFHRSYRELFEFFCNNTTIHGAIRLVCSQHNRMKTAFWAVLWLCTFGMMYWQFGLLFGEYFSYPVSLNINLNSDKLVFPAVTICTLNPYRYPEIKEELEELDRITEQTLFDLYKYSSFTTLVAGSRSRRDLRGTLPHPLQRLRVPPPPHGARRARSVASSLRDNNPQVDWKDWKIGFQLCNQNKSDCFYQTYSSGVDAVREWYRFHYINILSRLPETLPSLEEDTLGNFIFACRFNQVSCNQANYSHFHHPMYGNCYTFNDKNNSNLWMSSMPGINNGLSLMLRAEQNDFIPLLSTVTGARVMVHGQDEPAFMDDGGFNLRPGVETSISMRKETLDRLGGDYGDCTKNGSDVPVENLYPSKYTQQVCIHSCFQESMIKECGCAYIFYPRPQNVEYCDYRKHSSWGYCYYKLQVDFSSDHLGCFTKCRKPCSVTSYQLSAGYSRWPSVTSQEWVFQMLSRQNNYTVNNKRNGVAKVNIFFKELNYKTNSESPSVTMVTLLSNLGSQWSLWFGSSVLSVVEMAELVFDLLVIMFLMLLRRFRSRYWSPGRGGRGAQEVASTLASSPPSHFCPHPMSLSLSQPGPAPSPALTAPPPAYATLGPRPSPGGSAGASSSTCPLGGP
T1 sequence (P51168 1-640): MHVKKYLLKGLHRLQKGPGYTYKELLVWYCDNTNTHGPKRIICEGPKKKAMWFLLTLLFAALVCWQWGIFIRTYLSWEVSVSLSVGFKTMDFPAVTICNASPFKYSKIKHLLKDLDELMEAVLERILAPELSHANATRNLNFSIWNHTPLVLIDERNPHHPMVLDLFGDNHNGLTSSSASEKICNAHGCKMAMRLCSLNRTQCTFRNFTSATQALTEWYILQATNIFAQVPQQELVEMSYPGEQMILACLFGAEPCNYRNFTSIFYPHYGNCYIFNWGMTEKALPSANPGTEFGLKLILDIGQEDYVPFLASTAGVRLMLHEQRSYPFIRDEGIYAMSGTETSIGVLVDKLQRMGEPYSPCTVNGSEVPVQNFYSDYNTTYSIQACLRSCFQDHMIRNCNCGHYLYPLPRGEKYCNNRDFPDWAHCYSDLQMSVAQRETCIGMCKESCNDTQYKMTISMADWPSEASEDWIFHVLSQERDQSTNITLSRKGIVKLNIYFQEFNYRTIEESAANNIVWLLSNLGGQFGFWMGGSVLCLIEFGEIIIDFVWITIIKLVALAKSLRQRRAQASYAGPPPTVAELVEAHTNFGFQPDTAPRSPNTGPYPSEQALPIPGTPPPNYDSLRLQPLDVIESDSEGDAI
T1 sequence (P51170 1-649): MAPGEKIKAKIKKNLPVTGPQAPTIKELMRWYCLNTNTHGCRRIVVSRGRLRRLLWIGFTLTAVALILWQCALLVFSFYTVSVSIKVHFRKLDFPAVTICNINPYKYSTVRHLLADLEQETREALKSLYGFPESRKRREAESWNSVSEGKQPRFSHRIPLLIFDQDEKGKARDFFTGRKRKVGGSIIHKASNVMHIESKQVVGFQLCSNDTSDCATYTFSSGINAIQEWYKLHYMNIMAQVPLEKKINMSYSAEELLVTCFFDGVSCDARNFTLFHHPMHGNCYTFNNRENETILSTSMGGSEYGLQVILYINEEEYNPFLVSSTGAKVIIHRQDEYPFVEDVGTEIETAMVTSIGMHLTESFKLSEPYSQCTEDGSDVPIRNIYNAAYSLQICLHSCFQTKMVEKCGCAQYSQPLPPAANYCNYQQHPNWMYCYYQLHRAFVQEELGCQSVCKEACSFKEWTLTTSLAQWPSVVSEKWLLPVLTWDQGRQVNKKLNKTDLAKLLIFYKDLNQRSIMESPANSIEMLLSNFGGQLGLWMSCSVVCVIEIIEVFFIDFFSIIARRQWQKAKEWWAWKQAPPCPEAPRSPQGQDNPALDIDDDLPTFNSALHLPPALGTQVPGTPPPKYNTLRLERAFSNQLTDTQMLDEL
Test: Short circuit current assay to determine ENaC blocker potency in human bronchial epithelial cells
Format: cell-based
Settings: 50% inhibition of the total amiloride-sensitive short-circuit current (ISC) in human bronchial epithelial cells (HBECs) at air-liquid interface; apical addition; read-out: Averages · ENaC IC50 (nM) Avg
Method: Example 6 Short circuit current assay to determine ENaC blocker potency in human bronchial epithelial cells
Cell culture Human bronchial epithelial cells (HBECs) (Lonza, UK) were cultured using a modification of the method described by Coote et al, (2008). Cells were seeded into plastic T-75 flasks and grown in Bronchial Epithelial Cell Growth Medium (BEGM) (Lonza, UK) supplemented with bovine pituitary extract (52 ng/mL), hydrocortisone (0.5 μg/mL), human recombinant Epidermal Growth Factor (0.5 ng/mL), epinephrine (0.5 ng/mL), transferrin (10 ng/mL), insulin (5 ng/mL), retinoic acid (0.1 ng/mL), triiodothyronine (6.5 ng/mL), gentamycin (50 μg/mL) and amphotericin-B (50 ng/mL). Medium was changed every 48 hours until cells were 90% confluent. Cells were then passaged and seeded (8.25×10^5 cells/insert) onto polycarbonate Snapwell™ inserts (Costar, UK) in differentiation media containing 50% DMEM in BGEM with the same supplements as above but without triiodothyronine and a final retinoic acid concentration of 50 nM (all-trans retinoic acid; Sigma-Aldrich, UK). Cells were maintained submerged for the first 7 days in culture after which time they were exposed to an apical air interface for the remainder of the culture period. From the first day of establishment of an ALI, HBEC were fed with a DMEM:HAMS F-12 (1:1) media containing 2% Ultroser G (Pall BioSepra, France) with gentamycin (50 μg/mL) and amphotericin B (50 ng/mL). Cells were used for short-circuit current assay between days 14-21 after the establishment of the ALI. At all stages of culture, cells were maintained at 37° C. in 5% CO2 in an air incubator.
Short-Circuit Current (ISC) Measurements
Snapwell inserts were mounted in Costar Vertical Diffusion Chambers (Costar, UK) and were bathed with continuously gassed Ringer solution (5% CO2 in O2; pH 7.4) maintained at 37° C. containing (in mM): 120 NaCl, 25 NaHCO3, 3.3 KH2PO4, 0.8 K2HPO4, 1.2 CaCl2, 1.2 MgCl2 and 10 glucose. The solution osmolarity was always between 280-300 mOsm/kg H2O for all physiological salt solutions used. Cells were voltage clamped to 0 mV (model EVC4000, WPI). Transepithelial resistance (RT) was measured by applying a 2 mV pulse at 30 s intervals and calculating RT by Ohm's law. Data were recorded using a PowerLab workstation (ADInstruments, UK).
ENaC blocker compounds were added to the apical chamber from a 1000-fold stock solution (prepared in DMSO) to achieve a cumulative concentration response in terms of the inhibition of the basal ISC. At the completion of the concentration response, a supra-maximal concentration of amiloride (10 μM) was added. The concentration of test compound that induced a 50% inhibition of the total amiloride-sensitive ISC (IC50) was calculated using GraphPad Prism v6.05. […]

| IC50 [nM] | Structure (SMILES) |
| --- | --- |
| 2 | CCn1c(CNC(=O)c2nc3c(C)n[nH]c3nc2N)[n+](CC)c2ccc(OC)cc21 [Example 1, 2-[({6-amino-3-methyl-1H-pyrazolo[3,4-b]pyrazin-5-yl}formamido)methyl]-1,3-diethyl-6-methoxy-1H-1,3-benzodiazol-3-ium trifluoroacetate] |
| 91.5 | CCn1c(CNC(=O)c2nc3c(C)n[nH]c3nc2N)[n+](CC)c2ccc(C(=O)O)cc21 [Example 2, 2-[({6-amino-3-methyl-1H-pyrazolo[3,4-b]pyrazin-5-yl}formamido)methyl]-6-carboxy-1,3-diethyl-1H-1,3-benzodiazol-3-ium formate] |
| 106 | CCn1c(CNC(=O)c2nc3cn[nH]c3nc2N)[n+](CC)c2ccc(C(=O)O)cc21 [Example 3] |
| 47 | CCn1c(CNC(=O)c2nc3cn[nH]c3nc2N)[n+](CC)c2ccc(C(=O)N3CCC(N(C[C@H](O)[C@@H](O)[C@H](O)[C@H](O)CO)C[C@H](O)[C@@H](O)[C@H](O)[C@H](O)CO)CC3)cc21 [Example 4, 2-[({6-amino-1H-pyrazolo[3,4-b]pyrazin-5-yl}formamido)methyl]-6-(4-{bis[(2S,3R,4R,5R)-2,3,4,5,6-pentahydroxyhexyl]amino}piperidine-1-carbonyl)-1,3-diethyl-1H-1,3-benzodiazol-3-ium trifluoroacetic acid trifluoroacetate] |
